Measured values as given in patent US20220363870A1, “Stain Resistant Additive” (Arxada AG, priority 2019, published 2022).
Values joined by “and” are separate entries in the source; they are usually repeats but may differ in a detail not shown here. Equal entries are not always repeated.

System: 4 algal species
Assay: Resistance of Paint Films to Algal Defacement (Modified ASTM Method D5589)
Assay type: cell-based
Parameters: key to 4 wk Rating / 10 wk Rating / 14 wk Rating: 0 showing no growth; 4 showing the highest growth
Details: for Average 4 week rating: paint of Example 1, scale 0-4
Experimental: Procedure (Modified ASTM Method D5589): • 1. Sample substrates are coated with the corresponding paint samples containing the targeted amount of additive and antimicrobial. • 2. Depending upon the test conditions, samples are subjected to UV, leaching conditions, standard conditions, or a combination thereof. Leaching was performed for up to 7 days and with or without up to 600 hr of QUV in a weathering chamber. • 3. 4 algal species are used and inoculated every 2 weeks, including up to 18 weeks. Fresh plates were replaced at weeks 4, 10, 14, and 18. • 4. Ratings are scored on a range of 0-4, with 0 showing no growth and 4 showing the highest growth.

**Q.** With `CCCCCCCCn1sccc1=O` [N-octylisothiazolinone] as the compound, how does the “Average 4 week rating” value (Biocide 350 ppm + Additive 1,000 ppm) read?
**A.** 3.7

**Q.** What about the “Average 4 week rating” value (Biocide 350 ppm + Additive 3,000 ppm) of the same compound?
**A.** 1.7

**Q.** What about the “Average 4 week rating” value (Biocide 350 ppm, no additive) of the same compound?
**A.** 2.7

**Q.** And the “Average 4 week rating” value (Biocide 700 ppm + Additive 1,000 ppm)?
**A.** 0.7

**Q.** And the “Average 4 week rating” value (Biocide 700 ppm + Additive 3,000 ppm)?
**A.** 0.0

**Q.** And the “Average 4 week rating” value (Biocide 700 ppm, no additive)?
**A.** 1.0

**Q.** And the “Average 4 week rating” value (Biocide 1,050 ppm + Additive 1,000 ppm)?
**A.** 0.0

**Q.** And the “Average 4 week rating” value (Biocide 1,050 ppm + Additive 3,000 ppm)?
**A.** 0.0

**Q.** What about the “Average 4 week rating” value (Biocide 1,050 ppm, no additive) of the same compound?
**A.** 1.3

**Q.** With Zinc pyrithione as the compound, how does the “4 wk Rating” value (Conc. 0.7% in paint of Example 1, algal growth rating 0-4, 4 wk) read?
**A.** 0

**Q.** What about the “10 wk Rating” value (Conc. 0.7% in paint of Example 1, algal growth rating 0-4, 10 wk) of the same compound?
**A.** 0

**Q.** What about the “14 wk Rating” value (Conc. 0.7% in paint of Example 1, algal growth rating 0-4, 14 wk) of the same compound?
**A.** 0

**Q.** And the “4 wk ZOI” value (Conc. 0.7% in paint of Example 1, zone of inhibition, 4 wk)?
**A.** 15

**Q.** What about the “18 wk ZOI” value (Conc. 0.7% in paint of Example 1, zone of inhibition, 18 wk) of the same compound?
**A.** 0

**Q.** With “zinc di(ethyl 4,4,4-trifluoroacetoacetate) dihydrate [Additive]” as the compound, how does the “Average 4 week rating” value (Additive 1,000 ppm, no biocide) read?
**A.** 3.7

**Q.** And the “Average 4 week rating” value (Additive 3,000 ppm, no biocide)?
**A.** 2.0

**Q.** And the “18 wk Rating” value (Conc. 0.3% in paint of Example 1, algal growth rating 0-4, 18 wk, dihydrate)?
**A.** 3 and 2

**Q.** And the “4 wk ZOI” value (Conc. 0.3% in paint of Example 1, zone of inhibition, 4 wk)?
**A.** 0

**Q.** And the “10 wk ZOI” value (Conc. 0.3% in paint of Example 1, zone of inhibition, 10 wk)?
**A.** 0

**Q.** What about the “14 wk ZOI” value (Conc. 0.3% in paint of Example 1, zone of inhibition, 14 wk) of the same compound?
**A.** 0

**Q.** What about the “18 wk ZOI” value (Conc. 0.3% in paint of Example 1, zone of inhibition, 18 wk) of the same compound?
**A.** 0
